Results reported in PMC9146698, “Mammalian Brain Ca^2+ Channel Activity Transplanted into Xenopus laevis Oocytes” (Membranes, 2022).

Tested on: T1, GABA receptor
T1 construct: gene Gabra1
Assay: two-electrode voltage clamp, membrane-transplanted oocytes
Format: cell-based, Mus musculus
Conditions: block of GABA-induced Cl- current; n = 5; data not shown

With `CN1CCc2cc3c(cc2[C@H]1[C@@H]1OC(=O)c2c1ccc1c2OCO1)OCO3` [biccuculine] the “% block at 100 μM” value was 87 ± 2%.
